# What was measured:
# [1] = Cytotoxicity against human Caki1 cells assessed as cell growth at 10^-8 M after 48 hrs by SRB assay; type: functional; settings: CAKI-1, 48 h, read-out: Activity
# NCI-H23 = test: Cytotoxicity against human NCI-H23 cells assessed as cell growth at 10^-8 M after 48 hrs by SRB assay; type: functional; settings: NCI-H23, 48 h, read-out: Activity
# [2] = Cytotoxicity against human PC3 cells assessed as cell growth at 10^-8 M after 48 hrs by SRB assay; type: functional; settings: PC-3, 48 h, read-out: Activity
# [3] = Cytotoxicity against human Caki1 cells assessed as cell growth at 10^-5 M after 48 hrs by SRB assay; type: functional; settings: CAKI-1, 48 h, read-out: Activity
# A498 = test: Cytotoxicity against human A498 cells assessed as cell growth at 10^-8 M after 48 hrs by SRB assay; type: functional; settings: A498, 48 h, read-out: Activity
# [4] = Cytotoxicity against human PC3 cells assessed as cell growth at 10^-5 M after 48 hrs by SRB assay; type: functional; settings: PC-3, 48 h, read-out: Activity
# CCRF-CEM [5] = test: Cytotoxicity against human CCRF-CEM cells assessed as cell growth at 10^-6 M after 48 hrs by SRB assay; type: functional; settings: read-out: Activity
# KM12 = test: Cytotoxicity against human KM12 cells assessed as cell growth at 10^-6 M after 48 hrs by SRB assay; type: functional; settings: KM12, 48 h, read-out: Activity
# A549 = test: Cytotoxicity against human A549 cells assessed as cell growth at 10^-8 M after 48 hrs by SRB assay; type: functional; settings: A549, 48 h, read-out: Activity
# [6] = Cytotoxicity against human HOP62 cells assessed as cell growth at 10^-7 M after 48 hrs by SRB assay; type: functional; settings: HOP-62, 48 h, read-out: Activity
# [7] = Cytotoxicity against human SW620 cells assessed as cell growth at 10^-6 M after 48 hrs by SRB assay; type: functional; settings: SW-620, 48 h, read-out: Activity
# Malme-3M = test: Cytotoxicity against human MALME-3M cells assessed as cell growth at 10^-6 M after 48 hrs by SRB assay; type: functional; settings: read-out: Activity
# MCF7 = test: Cytotoxicity against human MCF7 cells assessed as cell growth at 10^-4 M after 48 hrs by SRB assay; type: functional; settings: MCF7, 48 h, read-out: Activity
# [8] = Cytotoxicity against human SNB75 cells assessed as cell growth at 10^-7 M after 48 hrs by SRB assay; type: functional; settings: SNB-75, 48 h, read-out: Activity
# T47D [9] = test: Cytotoxicity against human T47D cells assessed as cell growth at 10^-4 M after 48 hrs by SRB assay; type: functional; settings: read-out: Activity
# [10] = Cytotoxicity against human UACC62 cells assessed as cell growth at 10^-4 M after 48 hrs by SRB assay; type: functional; settings: UACC-62, 48 h, read-out: Activity
# [11] = Cytotoxicity against human SF268 cells assessed as cell growth at 10^-6 M after 48 hrs by SRB assay; type: functional; settings: SF-268, 48 h, read-out: Activity
# MDA-MB-435 = test: Cytotoxicity against human MDA-MB-435 cells assessed as cell growth at 10^-7 M after 48 hrs by SRB assay; type: functional; settings: MDA-MB-435, 48 h, read-out: Activity
# [12] = Cytotoxicity against human IGROV1 cells assessed as cell growth at 50 uM after 48 hrs by SRB assay; type: functional; settings: IGROV-1, 48 h, read-out: Activity
# [13] = Cytotoxicity against human SW620 cells assessed as cell growth at 50 nM after 48 hrs by SRB assay; type: functional; settings: SW-620, 48 h, read-out: Activity
# EKVX = test: Cytotoxicity against human EKVX cells assessed as cell growth at 50 uM after 48 hrs by SRB assay; type: functional; settings: read-out: Activity
# [14] = Cytotoxicity against human LOXIMVI cells assessed as cell growth at 5 uM after 48 hrs by SRB assay; type: functional; settings: LOX IMVI, read-out: Activity
# CCRF-CEM [15] = test: Cytotoxicity against human CCRF-CEM cells assessed as cell growth at 5 uM after 48 hrs by SRB assay; type: functional; settings: read-out: Activity
# [16] = Cytotoxicity against human RXF393 cells assessed as cell growth at 50 nM after 48 hrs by SRB assay; type: functional; settings: RXF 393, 48 h, read-out: Activity
# T47D [17] = test: Cytotoxicity against human T47D cells assessed as cell growth at 50 uM after 48 hrs by SRB assay; type: functional; settings: read-out: Activity
# [18] = Metabolic stability in human liver microsomes assessed as remaining parent compound level at 10 uM measured immediately after compound addition in absence of NAPDH by LC/MS analysis; type: ADME; settings: read-out: Drug metabolism
# [19] = Cytotoxicity against human PC3 cells assessed as cell growth at 5 uM after 48 hrs by SRB assay; type: functional; settings: PC-3, 48 h, read-out: Activity
# [20] = Cytotoxicity against human Hs 578T cells assessed as cell growth at 0.5 uM after 48 hrs by SRB assay; type: functional; settings: read-out: Activity
# [21] = Cytotoxicity against human SKOV3 cells assessed as cell growth at 50 nM after 48 hrs by SRB assay; type: functional; settings: SK-OV-3, 48 h, read-out: Activity
# HT-29 = test: Cytotoxicity against human HT-29 cells assessed as cell growth at 5 nM after 48 hrs by SRB assay; type: functional; settings: HT-29, 48 h, read-out: Activity
# SK-MEL-28 = test: Cytotoxicity against human SK-MEL-28 cells assessed as cell growth at 0.5 uM after 48 hrs by SRB assay; type: functional; settings: SK-MEL-28, 48 h, read-out: Activity
# [22] = Cytotoxicity against human SKOV3 cells assessed as cell growth at 50 uM after 48 hrs by SRB assay; type: functional; settings: SK-OV-3, 48 h, read-out: Activity
# [23] = Cytotoxicity against human NCI-ADR-RES cells assessed as cell growth at 50 uM after 48 hrs by SRB assay; type: functional; settings: read-out: Activity
# [24] = Cytotoxicity against human LOXIMVI cells assessed as cell growth at 50 nM after 48 hrs by SRB assay; type: functional; settings: LOX IMVI, read-out: Activity
# [25] = Cytotoxicity against human PC3 cells assessed as cell growth at 50 nM after 48 hrs by SRB assay; type: functional; settings: PC-3, 48 h, read-out: Activity
# U-251 = test: Cytotoxicity against human U251 cells assessed as cell growth at 50 nM after 48 hrs by SRB assay; type: functional; settings: U-251, 48 h, read-out: Activity
# [26] = Cytotoxicity against human SKOV3 cells assessed as cell growth at 0.5 uM after 48 hrs by SRB assay; type: functional; settings: SK-OV-3, 48 h, read-out: Activity
# [27] = Cytotoxicity against human HOP92 cells assessed as cell growth at 0.5 uM after 48 hrs by SRB assay; type: functional; settings: HOP-92, 48 h, read-out: Activity
# MDA-MB-231 = test: Cytotoxicity against human MDA-MB-231 cells assessed as cell growth at 0.5 uM after 48 hrs by SRB assay; type: functional; settings: MDA-MB-231, 48 h, read-out: Activity
# NCI-H522 = test: Cytotoxicity against human NCI-H522 cells assessed as cell growth at 50 uM after 48 hrs by SRB assay; type: functional; settings: NCI-H522, 48 h, read-out: Activity
# [28] = Cytotoxicity against human UACC257 cells assessed as cell growth at 5 uM after 48 hrs by SRB assay; type: functional; settings: UACC-257, 48 h, read-out: Activity
# NCI-H460 = test: Cytotoxicity against human NCI-H460 cells assessed as cell growth at 50 nM after 48 hrs by SRB assay; type: functional; settings: NCI-H460, 48 h, read-out: Activity
compound,measurement,setting,value
C/C(=C(/c1ccc(O)cc1)c1ccc(OCCN2CCCC2)cc1)c1ccccc1,growth at 0.01 µM,[1],87%
same,growth at 0.01 µM,NCI-H23,92%
same,growth at 0.01 µM,[2],104%
same,growth at 10 µM,[3],17%
same,growth at 0.01 µM,A498,66%
same,growth at 10 µM,[4],19%
same,growth at 1 µM,CCRF-CEM [5],102%
same,growth at 1 µM,KM12,95%
same,growth at 0.01 µM,A549,99%
same,growth at 0.1 µM,[6],95%
same,growth at 1 µM,[7],101%
same,growth at 1 µM,Malme-3M,88%
same,growth at 100 µM,MCF7,-66%
same,growth at 0.1 µM,[8],83%
same,growth at 100 µM,T47D [9],-67%
same,growth at 100 µM,[10],-79%
same,growth at 1 µM,[11],88%
same,growth at 0.1 µM,MDA-MB-435,97%
CCCCCCCCCC(=O)Oc1ccc(/C(=C(/C)c2ccccc2)c2ccc(OCCN3CCCC3)cc2)cc1,growth at 50 µM,[12],-58%
same,growth at 0.05 µM,[13],97%
same,growth at 50 µM,EKVX,-97%
same,growth at 5 µM,[14],89%
same,growth at 5 µM,CCRF-CEM [15],88%
same,growth at 0.05 µM,[16],100%
same,growth at 50 µM,T47D [17],-61%
same,"remaining at 0 h, 10 µM",[18],82%
same,growth at 5 µM,[19],89%
same,growth at 0.5 µM,[20],75%
same,growth at 0.05 µM,[21],90%
same,growth at 0.005 µM,HT-29,101%
same,growth at 0.5 µM,SK-MEL-28,19%
same,growth at 50 µM,[22],-88%
same,growth at 50 µM,[23],-73%
same,growth at 0.05 µM,[24],97%
same,growth at 0.05 µM,[25],97%
same,growth at 0.05 µM,U-251,95%
same,growth at 0.5 µM,[26],83%
same,growth at 0.5 µM,[27],64%
same,growth at 0.5 µM,MDA-MB-231,96%
same,growth at 50 µM,NCI-H522,-74%
same,growth at 5 µM,[28],101%
same,growth at 0.05 µM,NCI-H460,102%

# Source: ChEMBL document CHEMBL3774317, “Design and synthesis of novel tamoxifen analogues that avoid CYP2D6 metabolism” (Eur J Med Chem, 2016)
